Measured values as given in patent publication US8129366B2, “VLA-4 inhibitory drug” (Daiichi Sankyo Company, Limited, priority 2005, dated 2012).
Values after ≈ are worked out from the molar mass of the structure shown.

Columns and labels:
hα4 and β1 integrins = target: T1, hα4 and β1 integrins (Homo sapiens, UniProt P05556+P13612); experiment: In vitro inhibition of binding between CHO cells expressing hα4 and β1 integrins and Eu3+-hVCAM-1 D1D7-IgG; conditions: for Ki: CHO cells expressing hα4 and β1 integrins, Eu3+-hVCAM-1 D1D7-IgG ligand, without HSA; for IC50: in the presence of 3% human serum albumin (HSA final concentration 3%)
T1 construct: expressed in transfected cells; host or cells: CHO cells
T1 sequence (P13612 34-1032): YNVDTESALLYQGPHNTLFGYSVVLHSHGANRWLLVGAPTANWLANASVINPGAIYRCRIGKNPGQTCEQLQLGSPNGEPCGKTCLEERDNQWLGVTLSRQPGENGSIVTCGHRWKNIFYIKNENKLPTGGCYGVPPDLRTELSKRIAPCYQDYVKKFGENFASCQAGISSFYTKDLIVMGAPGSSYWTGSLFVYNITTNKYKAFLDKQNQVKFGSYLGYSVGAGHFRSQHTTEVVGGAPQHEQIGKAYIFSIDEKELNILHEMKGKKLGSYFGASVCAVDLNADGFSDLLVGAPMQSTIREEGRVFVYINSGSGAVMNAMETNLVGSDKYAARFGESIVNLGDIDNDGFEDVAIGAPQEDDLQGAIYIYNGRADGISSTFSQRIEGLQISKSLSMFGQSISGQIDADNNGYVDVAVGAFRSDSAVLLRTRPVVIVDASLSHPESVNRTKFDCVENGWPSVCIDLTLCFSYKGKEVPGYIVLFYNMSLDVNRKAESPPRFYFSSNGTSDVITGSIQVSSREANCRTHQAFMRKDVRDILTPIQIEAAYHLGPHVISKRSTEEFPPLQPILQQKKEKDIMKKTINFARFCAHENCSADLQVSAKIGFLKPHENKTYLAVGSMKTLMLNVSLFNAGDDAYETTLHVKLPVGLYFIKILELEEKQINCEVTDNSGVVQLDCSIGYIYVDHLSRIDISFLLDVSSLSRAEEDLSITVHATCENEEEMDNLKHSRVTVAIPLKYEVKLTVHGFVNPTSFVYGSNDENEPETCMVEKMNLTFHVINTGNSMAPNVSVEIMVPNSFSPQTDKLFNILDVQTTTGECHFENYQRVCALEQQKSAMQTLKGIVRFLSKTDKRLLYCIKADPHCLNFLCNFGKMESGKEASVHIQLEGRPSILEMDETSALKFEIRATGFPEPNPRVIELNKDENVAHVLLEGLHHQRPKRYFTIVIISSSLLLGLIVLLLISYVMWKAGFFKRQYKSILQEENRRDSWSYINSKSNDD
T1 sequence (P05556 21-798): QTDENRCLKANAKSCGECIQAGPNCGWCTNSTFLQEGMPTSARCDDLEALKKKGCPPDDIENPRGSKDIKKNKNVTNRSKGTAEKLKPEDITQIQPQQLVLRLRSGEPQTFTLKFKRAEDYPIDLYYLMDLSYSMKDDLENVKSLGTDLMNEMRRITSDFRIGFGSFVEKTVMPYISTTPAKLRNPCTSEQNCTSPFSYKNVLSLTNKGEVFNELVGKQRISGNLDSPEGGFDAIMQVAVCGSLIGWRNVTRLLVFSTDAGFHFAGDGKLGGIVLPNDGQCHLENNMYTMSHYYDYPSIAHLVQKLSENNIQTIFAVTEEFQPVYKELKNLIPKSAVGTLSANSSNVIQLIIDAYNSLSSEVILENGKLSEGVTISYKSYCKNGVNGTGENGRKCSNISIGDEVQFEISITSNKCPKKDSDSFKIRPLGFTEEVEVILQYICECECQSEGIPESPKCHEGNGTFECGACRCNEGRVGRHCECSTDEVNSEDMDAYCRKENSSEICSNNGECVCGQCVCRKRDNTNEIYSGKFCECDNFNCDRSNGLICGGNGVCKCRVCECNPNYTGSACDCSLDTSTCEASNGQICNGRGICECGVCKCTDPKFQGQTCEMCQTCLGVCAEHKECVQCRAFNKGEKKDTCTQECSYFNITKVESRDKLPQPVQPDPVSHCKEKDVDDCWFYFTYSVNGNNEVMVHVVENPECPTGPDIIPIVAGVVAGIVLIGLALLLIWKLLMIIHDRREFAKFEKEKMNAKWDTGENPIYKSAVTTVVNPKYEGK
How it was run: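 Transfected CHO cells, cultured 2 days, were incubated with compound and Eu³⁺-hVCAM-1 D1D7-IgG (diluted to 2 nM) for 1 h at room temperature. Buffer was 25 mM HEPES pH 7.5 with 1 mM Ca²⁺, 1 mM Mg²⁺, 4 mM Mn²⁺ and 0.1% BSA, ±3% HSA final. Cells were washed at 4 °C and read by DELFIA time-resolved fluorescence; Ki was derived from IC50 using the Scatchard Kd.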

[1] = Test for pharmacokinetics and oral absorbability in monkeys; type: in vivo; conditions: orally 0.5 mg/kg, single agent; for AUC (ng · h/ml): total area under the plasma concentration versus time curve: LC/MS/MS
Description: The pharmacokinetic parameters in the case of orally administering (0.5 mg/kg, single agent) the substance under test to monkeys, were as follows.

[2] = Solubility test in first and second liquid of the Japanese Pharmacopoeia
Description: The solubilities of the substance under test in the first liquid (JP1, pH=1.2) of the Japanese Pharmacopoeia and the second liquid (JP2, pH=6.8) of the Japanese Pharmacopoeia, were evaluated.

[3] = test system: eosinophile infiltration in mice actively sensitized with ascaris; experiment: Test for eosinophile infiltration in mice actively sensitized with ascaris, administered two times a day; type: in vivo; conditions: orally 5 mg/kg two times a day; for inhibition in vivo at 5 mg/kg: Mus musculus, po, eosinophile count in BALF 48 hours after sensitization vs ascaris-sensitized group, read-out: suppression rate (%); for Average total eosinophile count (×10^5) of (ascaris-sensitized + substance under test) group: BALF 48 hours after sensitization
Description: Test for eosinophile infiltration in mice actively sensitized with ascaris (antigen to pig roundworm):
It has been reported that infiltration of eosinophilic cells is induced by active sensitization with ascaris {Int. Arch. Immuno., 108, 11-18 (1995)}. An evaluation of the compounds under test was performed according to the evaluation method described herein. The substance under test was orally administered in an amount of 5 mg/kg, two times a day. The total cell count and the eosinophile count in BALF of 48 hours after sensitization were calculated, and the effects were determined by comparing with the group not administered with the substance under test.

[4] = first liquid of the Japanese Pharmacopoeia (JP1), pH 1.2, simulated gastric fluid, First liquid of Japanese Pharmacopoeia (μg/mL), JP1, pH=1.2
[5] = second liquid of the Japanese Pharmacopoeia (JP2), pH 6.8, aqueous buffer, Second liquid of Japanese Pharmacopoeia (μg/mL), JP2, pH=6.8

| Structure (SMILES) | Ki (hα4 and β1 integrins) | IC50 (hα4 and β1 integrins) | Cltot (mL/min/kg): apparent plasma clearance [1] | AUC (ng · h/ml): total area under the plasma concentration versus time curve [1] | Solubility, First liquid of Japanese Pharmacopoeia ([2]; JP1, pH=1.2) | Solubility, Second liquid of Japanese Pharmacopoeia ([2]; JP2, pH=6.8) | inhibition in vivo at 5 mg/kg [3] | Average total eosinophile count (×10^5) of (ascaris-sensitized + substance under test) group [3] | solubility [2, 4] | solubility [2, 5] |
| --- | --- | --- | --- | --- | --- | --- | --- | --- | --- | --- |
| COC1CN([C@H]2C[C@@H](CO[C@H]3CC[C@H](C(=O)O)CC3)N(C(=O)Cc3cc(Cl)c(NC(=O)c4cn(C)c5ccccc45)cc3Cl)C2)C1 (relative stereo) [Example 2, Trans-4-[1-[[2,5-dichloro-4-[(1-methyl-1H-indol-3-ylcarbonyl)amino]phenyl]acetyl]-(4S)-(3-methoxyazetidin-1-yl)-(2S)-pyrrolidinylmethoxy]cyclohexanecarboxylic acid] | 2.2 nM | 17 nM | 0.40 mL/min/kg | 22185 ng·h/mL | >2000 µg/mL | >2000 µg/mL |  |  |  |  |
| Cn1cc(C(=O)Nc2cc(F)c(CC(=O)N3C[C@@H](N4CCN(CC(F)(F)F)CC4)C[C@H]3CO[C@H]3CC[C@H](C(=O)O)CC3)cc2Cl)c2ccccc21 [Example 124, Trans-4-[1-[[5-chloro-2-fluoro-4-[(1-methyl-1H-indol-3-ylcarbonyl)amino]phenyl]acetyl]-(4S)-[4-(2,2,2-trifluoroethyl)piperazin-1-yl]-(2S)-pyrrolidinylmethoxy]cyclohexanecarboxylic acid] | 4.9 nM | 17 nM |  |  |  |  | 63% | 1.72 ×10^5 |  |  |
| C[C@@H]1CN([C@H]2C[C@@H](CO[C@H]3CC[C@H](C(=O)O)CC3)N(C(=O)Cc3cc(Cl)c(NC(=O)c4coc5ccccc45)cc3Cl)C2)C[C@H](C)O1 [Example 83, Trans-4-[1-[[4-[(benzo[b]furan-3-ylcarbonyl)amino]-2,5-dichlorophenyl]acetyl]-(4S)-(cis-2,6-dimethylmorpholin-4-yl)-(2S)-pyrrolidinylmethoxy]cyclohexanecarboxylic acid] | 5.2 nM | 42 nM | 0.56 mL/min/kg | 15064 ng·h/mL |  |  |  |  |  |  |
| Cn1cc(C(=O)Nc2cc(Cl)c(CC(=O)N3C[C@@H](N4CCN(C5CC5)CC4)C[C@H]3CO[C@H]3CC[C@H](C(=O)O)CC3)cc2Cl)c2ccccc21 [Example 139, Trans-4-[1-[[2,5-dichloro-4-[(1-methyl-1H-indol-3-ylcarbonyl)amino]phenyl]acetyl]-(4S)-(4-cyclopropylpiperazin-1-yl)-(2S)-pyrrolidinylmethoxy]cyclohexanecarboxylic acid] | 2.5 nM | 13 nM | 1.2 mL/min/kg | 7329 ng·h/mL |  |  |  |  |  |  |
| Cn1cc(C(=O)Nc2cc(F)c(CC(=O)N3C[C@@H](N4CCN(CCF)CC4)C[C@H]3CO[C@H]3CC[C@H](C(=O)O)CC3)cc2Cl)c2ccccc21 [Example 118, Trans-4-[1-[[5-chloro-2-fluoro-4-[(1-methyl-1H-indol-3-ylcarbonyl)amino]phenyl]acetyl]-(4S)-[4-(2-fluoroethyl)piperazin-1-yl]-(2S)-pyrrolidinylmethoxy]cyclohexanecarboxylic acid] | 3.9 nM | 13 nM |  |  |  |  | 67% | 1.41 ×10^5 | 1000 µg/mL (≈ 1430 µM) | 1000 µg/mL (≈ 1430 µM) |
| Cn1cc(C(=O)Nc2cc(F)c(CC(=O)N3C[C@@H](N4C[C@H]5COC[C@H]5C4)C[C@H]3CO[C@H]3CC[C@H](C(=O)O)CC3)cc2Cl)c2ccccc21 [Example 72] | 2.8 nM | 15 nM |  |  |  |  | 70% | 1.41 ×10^5 |  |  |
| O=C(Nc1ccc(CC(=O)N2C[C@@H](N3CCN(CC(F)(F)F)CC3)C[C@H]2CO[C@H]2CC[C@H](C(=O)O)CC2)cc1Cl)c1nccc2ccccc12 [Example 127, Trans-4-[1-[[3-chloro-4-[(isoquinolin-1-ylcarbonyl)amino]phenyl]acetyl]-(4S)-[4-(2,2,2-trifluoroethyl)piperazin-1-yl]-(2S)-pyrrolidinylmethoxy]cyclohexanecarboxylic acid] | 9.6 nM | 34 nM |  |  |  |  | 63% | 1.40 ×10^5 |  |  |
| C[C@@H]1CN([C@H]2C[C@@H](CO[C@H]3CC[C@H](C(=O)O)CC3)N(C(=O)Cc3cc(Cl)c(NC(=O)c4cn(C)c5ccccc45)cc3Cl)C2)C[C@H](C)O1 [Example 80, Trans-4-[1-[[2,5-dichloro-4-[(1-methyl-1H-indol-3-ylcarbonyl)amino]phenyl]acetyl]-(4S)-(cis-2,6-dimethylmorpholin-4-yl)-(2S)-pyrrolidinylmethoxy]cyclohexanecarboxylic acid] | 6.5 nM | 20 nM |  |  |  |  | 51% | 1.86 ×10^5 |  |  |
| O=C(Nc1cc(F)c(CC(=O)N2C[C@@H](N3C[C@@H]4OCO[C@@H]4C3)C[C@H]2CO[C@H]2CC[C@H](C(=O)O)CC2)cc1Cl)c1coc2ccccc12 [Example 74, Trans-4-[1-[[4-[(benzo[b]furan-3-ylcarbonyl)amino]-5-chloro-2-fluorophenyl]acetyl]-(4S)-[(3a,6a-cis)-tetrahydro[1,3]dioxolo[4,5-c]pyrrol-5-yl]-(2S)-pyrrolidinylmethoxy]cyclohexanecarboxylic acid] | 1.5 nM | 8.8 nM |  |  |  |  |  |  | 1200 µg/mL (≈ 1790 µM) | 1300 µg/mL (≈ 1940 µM) |
| CO[C@H]1CCN([C@H]2C[C@@H](CO[C@H]3CC[C@H](C(=O)O)CC3)N(C(=O)Cc3cc(Cl)c(NC(=O)c4cn(C)c5ccccc45)cc3Cl)C2)C1 [Example 35, Trans-4-[1-[[2,5-dichloro-4-[(1-methyl-1H-indol-3-ylcarbonyl)amino]phenyl]acetyl]-(4S)-[(3S)-methoxypyrrolidin-1-yl]-(2S)-pyrrolidinylmethoxy]cyclohexanecarboxylic acid] | 5.9 nM | 20 nM |  |  |  |  |  |  | > 2000 µg/mL | > 2000 µg/mL |
| CO[C@H]1CN([C@H]2C[C@@H](CO[C@H]3CC[C@H](C(=O)O)CC3)N(C(=O)Cc3cc(Cl)c(NC(=O)c4cn(C)c5ccccc45)cc3Cl)C2)C[C@@H]1OC [Example 51, Trans-4-[1-[[2,5-dichloro-4-[(1-methyl-1H-indol-3-ylcarbonyl)amino]phenyl]acetyl]-(4S)-[(3S,4S)-dimethoxypyrrolidin-1-yl]-(2S)-pyrrolidinylmethoxy]cyclohexanecarboxylic acid] | 5.8 nM | 18 nM |  |  |  |  |  |  | 1000 µg/mL (≈ 1400 µM) | 1000 µg/mL (≈ 1400 µM) |
| COCCC1CN([C@H]2C[C@@H](CO[C@H]3CC[C@H](C(=O)O)CC3)N(C(=O)Cc3cc(Cl)c(NC(=O)c4csc5ccccc45)cc3F)C2)C1 [Example 12, Trans-4-[1-[[4-[(benzo[b]thiophen-3-ylcarbonyl)amino]-5-chloro-2-fluorophenyl]acetyl]-(4S)-[3-(2-methoxyethyl)azetidin-1-yl]-(2S)-pyrrolidinylmethoxy]cyclohexanecarboxylic acid] | 1 nM | 8.6 nM |  |  |  |  |  |  | 1910 µg/mL (≈ 2780 µM) | 1690 µg/mL (≈ 2460 µM) |
| O=C(Nc1cc(F)c(CC(=O)N2C[C@@H](N3CCCCC3)C[C@H]2CO[C@H]2CC[C@H](C(=O)O)CC2)cc1Cl)c1csc2ccccc12 [Example 94, Trans-4-[1-[[4-[(benzo[b]thiophen-3-ylcarbonyl)amino]-5-chloro-2-fluorophenyl]acetyl]-(4S)-(piperidin-1-yl)-(2S)-pyrrolidinylmethoxy]cyclohexanecarboxylic acid] | 0.93 nM | 2.9 nM |  |  |  |  | 59% | 1.24 ×10^5 |  |  |
| CN(C)CC1CN([C@H]2C[C@@H](CO[C@H]3CC[C@H](C(=O)O)CC3)N(C(=O)Cc3cc(Cl)c(NC(=O)c4cn(C)c5ccccc45)cc3F)C2)C1 [Example 29, Trans-4-[1-[[5-chloro-2-fluoro-4-[(1-methyl-1H-indol-3-ylcarbonyl)amino]phenyl]acetyl]-(4S)-[3-(N,N-dimethylaminomethyl)azetidin-1-yl]-(2S)-pyrrolidinylmethoxy]cyclohexane carboxylic acid] | 4.2 nM | 12 nM |  |  |  |  |  |  | 1000 µg/mL (≈ 1470 µM) | 1000 µg/mL (≈ 1470 µM) |
| CC(=O)N[C@H]1CCN([C@H]2C[C@@H](CO[C@H]3CC[C@H](C(=O)O)CC3)N(C(=O)Cc3cc(Cl)c(NC(=O)c4csc5ccccc45)cc3F)C2)C1 [Example 66, Trans-4-[1-[[4-[(benzo[b]thiophen-3-ylcarbonyl)amino]-5-chloro-2-fluorophenyl]acetyl]-(4S)-[(3S)-acetamidopyrrolidin-1-yl]-(2S)-pyrrolidinylmethoxy]cyclohexanecarboxylic acid] | 0.42 nM | 14 nM |  |  |  |  |  |  | > 2000 µg/mL | > 2000 µg/mL |
